Starred links: 1 amine or outer side, 2 acyl side, 3 side chain; linkers in the order of their positions; H or OH if unused. Positions of bridges follow the written chain, without caps; N, C: chain ends. Non-standard residues stand in square brackets, D forms with d. Residues, ends and D or L forms follow the SMILES beside them. *: point of attachment. Phe(4-(CH2)5CO) = O=C([C@H](Cc1ccc(CCCCCC(=O)[*:3])cc1)N[*:1])[*:2]; Phe(3-(CH2)4CO) = O=C([C@H](Cc1cccc(CCCCC(=O)[*:3])c1)N[*:1])[*:2]; NEtPhe = CCN[C@@H](Cc1ccccc1)C(=O)O; NMeF = CN[C@@H](Cc1ccccc1)C(=O)O; NMeI = CC[C@H](C)[C@H](NC)C(=O)O; hPhe = N[C@@H](CCc1ccccc1)C(=O)O; NMeL = CN[C@@H](CC(C)C)C(=O)O; NMeV = CN[C@H](C(=O)O)C(C)C; NMeA = CN[C@@H](C)C(=O)O; Piperidide = C1CCN(*)CC1; dNMeA = CN[C@H](C)C(=O)O; β3hA = C[C@H](N)CC(=O)O; NPrGly = CCCNCC(=O)O; Sar = CNCC(=O)O; tBu = CC(C)(C)*
Experiment: Metabolic stability in human hepatic microsome
Type: in vitro ADME
Settings: human, microsomes, pH 7.4, CL NADPH(+)
Work on `CCN1C(=O)[C@H](Cc2ccccc2)N(C)C(=O)CN(C)C(=O)[C@H]([C@@H](C)O)NC(=O)[C@H](C)N(C)C(=O)C[C@@H](C(=O)N2CCCCC2)NC(=O)[C@H](C(C)C)N(C)C(=O)[C@H](C)NC(=O)[C@H](CC(C)C)N(C)C(=O)[C@@H]2CCCN2C(=O)[C@H](CC(C)C)N(C)C(=O)[C@@H]1Cc1ccccc1` [DP-632] ([NMeA]T[Sar][NMeF][NEtPhe][NMeL]P[NMeL]A[NMeV]D-Piperidide; lactam N-11) yielded a microsomal CLint at 1 uM of 41 µL/min/mg.
With `CC[C@H](C)[C@@H]1NC(=O)[C@H](CC(C)C)N(C)C(=O)[C@H](CC(C)C)N(C)C(=O)[C@H](C)NC(=O)[C@H](CC(C)C)N(C)C(=O)[C@H](Cc2ccccc2)NC(=O)[C@H]([C@@H](C)O)NC(=O)[C@H](CC(C)C)N(C)C(=O)[C@H](CC(C)C)N(C)C(=O)[C@H](C)N(C)C(=O)C[C@H](C)NC1=O` [DP-772] (cyclo(A[NMeL][NMeL]I[β3hA][NMeA][NMeL][NMeL]TF[NMeL])) the microsomal CLint at 1 uM was 153 µL/min/mg.

Same assay, conditions: microsomes, pH 7.4; human hepatic microsome, NADPH(+); read-out: CL NADPH(+)
Compound `CC[C@H](C)[C@H]1C(=O)N[C@@H]([C@@H](C)O)C(=O)N(C)CC(=O)N(C)[C@@H](CC(C)C)C(=O)N[C@H](C(=O)N2CCCCC2)CC(=O)N(C)[C@H](C)C(=O)N[C@@H](CC(C)C)C(=O)N(C)[C@@H](CC(C)C)C(=O)N(CC)[C@@H](Cc2ccccc2)C(=O)N[C@@H](C)C(=O)N(C)[C@@H](Cc2ccccc2)C(=O)N1C` [DP-633] ([dNMeA]L[NMeL][NEtPhe]A[NMeF][NMeI]T[Sar][NMeL]D-Piperidide; lactam N-11) has a microsomal CLint at 1 uM of 98 µL/min/mg.
With `CCCN1CC(=O)N[C@@H](COC(C)(C)C)C(=O)N(C)CC(=O)N(C)[C@@H](CC(C)C)C(=O)N[C@@H]([C@@H](C)O)C(=O)N(C)[C@@H](Cc2ccccc2)C(=O)N(C)[C@@H](CC(C)C)C(=O)N(C)[C@@H]([C@@H](C)CC)C(=O)N(C)[C@@H](C)C(=O)N[C@H](C(=O)N2CCCCC2)CC1=O` [DP-634] ([NPrGly]S(tBu)[Sar][NMeL]T[NMeF][NMeL][NMeI][NMeA]D-Piperidide; lactam N-10) the microsomal CLint at 1 uM was 32 µL/min/mg.
With `CCCN1CC(=O)N(C)[C@@H](CC(C)C)C(=O)N[C@H](C(=O)N2CCCCC2)CC(=O)N(C)[C@H](C)C(=O)N[C@@H](CC(C)C)C(=O)N(C)[C@@H](CC(C)C)C(=O)N(C)[C@@H](Cc2ccccc2)C(=O)N[C@@H](C)C(=O)N(C)[C@@H](Cc2ccccc2)C(=O)N(C)[C@@H]([C@@H](C)CC)C(=O)N[C@@H]([C@@H](C)O)C1=O` [DP-635] ([dNMeA]L[NMeL][NMeF]A[NMeF][NMeI]T[NPrGly][NMeL]D-Piperidide; lactam N-11) the microsomal CLint at 1 uM was 112 µL/min/mg.
Compound `CCN1C(=O)[C@H](CC(C)C)N(C)C(=O)[C@H](CC(C)C)NC(=O)[C@@H](C)N(C)C(=O)C[C@@H](C(=O)N2CCCCC2)NC(=O)[C@H](CC(C)C)N(C)C(=O)CN(C)C(=O)[C@H]([C@@H](C)O)NC(=O)[C@H](CC(C)C)N(C)C(=O)[C@H](Cc2ccccc2)N(C)C(=O)[C@H](C)NC(=O)[C@@H]1Cc1ccccc1` [DP-636] ([dNMeA]L[NMeL][NEtPhe]A[NMeF][NMeL]T[Sar][NMeL]D-Piperidide; lactam N-11) has a microsomal CLint at 1 uM of 73 µL/min/mg.
`CCN1C(=O)[C@H](C)NC(=O)[C@H](Cc2ccccc2)N(C)C(=O)[C@H](CC(C)C)N(C)C(=O)[C@H](CC(C)C)NC(=O)[C@@H](C)N(C)C(=O)C[C@@H](C(=O)N2CCCCC2)NC(=O)[C@H](CC(C)C)N(C)C(=O)CN(C)C(=O)[C@H]([C@@H](C)O)NC(=O)[C@H](CC(C)C)N(C)C(=O)[C@@H]1Cc1ccccc1` [DP-637] ([dNMeA]L[NMeL][NMeF]A[NEtPhe][NMeL]T[Sar][NMeL]D-Piperidide; lactam N-11) gave a microsomal CLint at 1 uM of 56 µL/min/mg.
In the case of `CC[C@H](C)[C@H]1C(=O)N(C)[C@@H](CC(C)C)C(=O)N[C@H](C(=O)N2CCCCC2)CC(=O)N(C)CC(=O)N[C@@H](CC(C)C)C(=O)N[C@@H]([C@@H](C)O)C(=O)N(C)CC(=O)N(C)[C@@H](Cc2ccccc2)C(=O)N[C@@H](C)C(=O)N(CC)[C@@H](Cc2ccccc2)C(=O)N[C@@H](CC(C)C)C(=O)N1C` [DP-638] ([Sar]LT[Sar][NMeF]A[NEtPhe]L[NMeI][NMeL]D-Piperidide; lactam N-11), the microsomal CLint at 1 uM is reported as 47 µL/min/mg.
With `CC[C@H](C)[C@@H]1NC(=O)[C@H](Cc2ccccc2)N(C)C(=O)[C@@H](C)NC(=O)C[C@@H](C(=O)N2CCCCC2)NC(=O)[C@H](C(C)C)NC(=O)CN(C)C(=O)[C@H]([C@@H](C)O)NC1=O` [DP-674] ([dA][NMeF]IT[Sar]VD-Piperidide; lactam N-7) the microsomal CLint at 1 uM was 10 µL/min/mg.
Work on `CC[C@H](C)[C@@H]1NC(=O)[C@H](CC(C)C)N(C)C(=O)CN(C)C(=O)[C@H](Cc2ccccc2)NC(=O)[C@H](C(C)C)N(C)C(=O)[C@H](C)N(C)C(=O)[C@H]([C@@H](C)O)NC(=O)[C@H](C)N(C)C(=O)C[C@@H](C(=O)N2CCCCC2)NC(=O)[C@H](C)NC1=O` [DP-675] ([NMeA]T[NMeA][NMeV]F[Sar][NMeL]IAD-Piperidide; lactam N-10) yielded a microsomal CLint at 1 uM of 22 µL/min/mg.
`CC[C@H](C)[C@@H]1NC(=O)[C@H](Cc2ccccc2)N(C)C(=O)[C@H](CCc2ccccc2)NC(=O)[C@H](C(C)C)N(C)C(=O)[C@H](CC(C)C)N(C)C(=O)[C@H](CC(C)C)NC(=O)[C@@H](C)NC(=O)C[C@@H](C(=O)N2CCCCC2)NC(=O)[C@H]([C@@H](C)O)NC(=O)[C@H](C)NC(=O)[C@H](C)N(C)C1=O` [DP-730] ([dA]L[NMeL][NMeV][hPhe][NMeF]I[NMeA]ATD-Piperidide; lactam N-11) gave a microsomal CLint at 1 uM of 50 µL/min/mg.
`C=C1CCC(=O)N(C)[C@@H](Cc2ccccc2)C(=O)N(C)CC(=O)N(C)[C@@H](CC(C)C)C(=O)N[C@@H]([C@@H](C)O)C(=O)N(C)[C@@H](C)C(=O)N(C)[C@@H](CC(C)C)C(=O)N(C)[C@@H]([C@@H](C)CC)C(=O)N[C@@H](COC(C)(C)C)C(=O)N[C@H](C(=O)N2CCCCC2)Cc2ccc1cc2` [DP-830] gave a microsomal CLint at 1 uM of 321 µL/min/mg.
For `CC[C@H](C)[C@H]1C(=O)N[C@@H](COC(C)(C)C)C(=O)N[C@H](C(=O)N2CCCCC2)Cc2ccc(cc2)CCCCCC(=O)N(C)[C@@H](Cc2ccccc2)C(=O)N(C)CC(=O)N(C)[C@@H](CC(C)C)C(=O)N[C@@H]([C@@H](C)O)C(=O)N(C)[C@@H](C)C(=O)N(C)[C@@H](CC(C)C)C(=O)N1C` [DP-832] ([NMeF][Sar][NMeL]T[NMeA][NMeL][NMeI]S(tBu)[Phe(4-(CH2)5CO)]-Piperidide; lactam N-9), the microsomal CLint at 1 uM was 850 µL/min/mg.
`C=C1CCC(=O)N(C)[C@@H](Cc2ccccc2)C(=O)N(C)[C@@H](CC(C)C)C(=O)N[C@@H]([C@@H](C)CC)C(=O)N(C)[C@@H](C)C(=O)N(C)[C@@H](Cc2ccccc2)C(=O)N[C@@H]([C@@H](C)O)C(=O)N(C)[C@@H](C)C(=O)N(C)[C@@H](CC(C)C)C(=O)N[C@H](C(=O)N2CCCCC2)Cc2ccc1cc2` [DP-833] showed a microsomal CLint at 1 uM of 427 µL/min/mg.
Work on `CC[C@H](C)[C@@H]1NC(=O)[C@H](CC(C)C)N(C)C(=O)[C@H](Cc2ccccc2)N(C)C(=O)CCCCCc2ccc(cc2)C[C@@H](C(=O)N2CCCCC2)NC(=O)[C@H](CC(C)C)N(C)C(=O)[C@H](C)N(C)C(=O)[C@H]([C@@H](C)O)NC(=O)[C@H](Cc2ccccc2)N(C)C(=O)[C@H](C)N(C)C1=O` [DP-835] ([NMeF][NMeL]I[NMeA][NMeF]T[NMeA][NMeL][Phe(4-(CH2)5CO)]-Piperidide; lactam N-9) yielded a microsomal CLint at 1 uM of 497 µL/min/mg.
`CC(C)C[C@H]1C(=O)N[C@@H](COC(C)(C)C)C(=O)N(C)[C@@H](CC(C)C)C(=O)N[C@H](C(=O)N2CCCCC2)Cc2ccc(cc2)CCCCCC(=O)N(C)[C@@H](C)C(=O)N(C)[C@@H](Cc2ccccc2)C(=O)N(C)[C@@H](CC(C)C)C(=O)N[C@@H]([C@@H](C)O)C(=O)N(C)CC(=O)N1C` [DP-837] ([NMeA][NMeF][NMeL]T[Sar][NMeL]S(tBu)[NMeL][Phe(4-(CH2)5CO)]-Piperidide; lactam N-9) gave a microsomal CLint at 1 uM of 284 µL/min/mg.
In the case of `C=C1CCC(=O)N[C@@H](COC(C)(C)C)C(=O)N(CCC)CC(=O)N(C)[C@@H](CC(C)C)C(=O)N[C@@H]([C@@H](C)O)C(=O)N(C)[C@@H](Cc2ccccc2)C(=O)N(C)[C@@H](CC(C)C)C(=O)N(C)[C@@H]([C@@H](C)CC)C(=O)N(C)[C@@H](C)C(=O)N[C@H](C(=O)N2CCCCC2)Cc2ccc1cc2` [DP-839], the microsomal CLint at 1 uM is reported as 91 µL/min/mg.
In the case of `CC[C@H](C)[C@@H]1NC(=O)[C@H](C)N(C)C(=O)CCCCCc2ccc(cc2)C[C@@H](C(=O)N2CCCCC2)NC(=O)[C@H](CC(C)C)N(C)C(=O)[C@H](CC(C)C)N(C)C(=O)[C@H](C)N(C)C(=O)[C@H]([C@@H](C)O)NC(=O)[C@H](Cc2ccccc2)N(C)C(=O)[C@H](Cc2ccccc2)N(C)C1=O` [DP-841] ([NMeA]I[NMeF][NMeF]T[NMeA][NMeL][NMeL][Phe(4-(CH2)5CO)]-Piperidide; lactam N-9), the microsomal CLint at 1 uM is reported as 386 µL/min/mg.
Work on `CC(C)C[C@@H]1NC(=O)[C@H](Cc2ccccc2)NC(=O)[C@H](CC(C)C)N(C)C(=O)[C@H](Cc2ccccc2)NC(=O)CCCCCc2ccc(cc2)C[C@@H](C(=O)N2CCCCC2)NC(=O)[C@H](Cc2ccccc2)N(C)C(=O)CNC(=O)[C@H]([C@@H](C)O)NC(=O)[C@H](CC(C)C)NC1=O` [DP-842] (F[NMeL]FLLTG[NMeF][Phe(4-(CH2)5CO)]-Piperidide; lactam N-9) yielded a microsomal CLint at 1 uM of 135 µL/min/mg.
Compound `C=C1CCC(=O)N(C)[C@@H](Cc2ccccc2)C(=O)N(C)[C@@H](CC(C)C)C(=O)N[C@@H]([C@@H](C)O)C(=O)N(C)[C@@H](C)C(=O)NCC(=O)N(C)[C@@H](CC(C)C)C(=O)N(C)[C@@H](CC(C)C)C(=O)N(C)[C@@H](CC(C)C)C(=O)N[C@H](C(=O)N2CCCCC2)Cc2ccc1cc2` [DP-845] has a microsomal CLint at 1 uM of 248 µL/min/mg.
In the case of `CC[C@H](C)[C@@H]1NC(=O)[C@H](C)N(C)C(=O)CCCCc2cccc(c2)C[C@@H](C(=O)N2CCCCC2)NC(=O)[C@H](CC(C)C)N(C)C(=O)[C@H](C)N(C)C(=O)[C@H]([C@@H](C)O)NC(=O)[C@H](Cc2ccccc2)N(C)C(=O)[C@H](Cc2ccccc2)N(C)C(=O)[C@H](CC(C)C)N(C)C1=O` [DP-849] ([NMeA]I[NMeL][NMeF][NMeF]T[NMeA][NMeL][Phe(3-(CH2)4CO)]-Piperidide; lactam N-9), the microsomal CLint at 1 uM is reported as 202 µL/min/mg.
Compound `C=C1CCC(=O)N(C)[C@@H](Cc2ccccc2)C(=O)N[C@@H](CC(C)C)C(=O)N(C)[C@@H](CC(C)C)C(=O)N[C@@H]([C@@H](C)O)C(=O)N(C)CC(=O)N(C)[C@@H]([C@@H](C)CC)C(=O)N[C@@H](COC(C)(C)C)C(=O)N(C)[C@@H](Cc2ccccc2)C(=O)N(C)[C@@H](C(C)C)C(=O)N[C@H](C(=O)N2CCCCC2)Cc2ccc1cc2` [DP-850] has a microsomal CLint at 1 uM of 119 µL/min/mg.

Source: patent US9409952B2, “Peptide-compound cyclization method” (Chugai Seiyaku Kabushiki Kaisha, priority 2011, dated 2016)
